Results taken from PMC8151276, “An Integrated Approach toward NanoBRET Tracers for Analysis of GPCR Ligand Engagement” (Molecules, 2021).

Key:
Type in all cases: binding
SSTR4 = target: T1, SSTR4 (Homo sapiens, UniProt P31391); test: NanoBRET screen HiBiT-SSTR4 in HEK293; conditions: SSTR4
T1 construct: purchased Promega (in-house HiBiT-GPCR construct library, NanoBRET)
Description: (§1) Each tracer candidate was screened across the entire library of HiBiT-GPCR constructs using NanoBRET as the detection modality. As depicted in Figure 4A, the specificity of interactions was evaluated through decrease in BRET due to competitive displacement of a bound tracer by excess parental compound. Each tracer was analyzed for binding to each HiBiT-GPCR fusion in the absence and in the presence of competing parental compound. Briefly, HEK293 cells were transfected with HiBiT-GPCR constructs diluted into promoterless DNA to reduce expression and maximize translocation to the cell surface. Each tracer candidate was then screened at concentrations of 1 μM and 0.1 μM across cells expressing these fusions. Cells were treated for 1.5 h with tracer either alone or in the presence of 20 μM competing parental compound (i.e., control). BRET was measured upon addition of purified LgBiT and subsequent complementation with HiBiT genetically fused to a GPCR. The specificity of interactions was assessed through a decrease in BRET signal due to competitive displacement of the bound tracer. To further gauge the robustness of these interactions, the fold response over the control (i.e., BRETtracer/BRETcontrol) was calculated. We chose a 1.5-fold response, which translates to ≥7-fold signal over noise as the minimal threshold required to score an interaction as positive. […]. Below we highlight the screening results obtained for our exemplary fluorescent tracers based on Clozapine, Amitriptyline and AZD1283.
(§2) HiBiT-GPCR DNA constructs were diluted in 10 mM Tris pH 8 to a final concentration of 0.01 μg/μL, arrayed in 96-well plates and stored at −20 °C. For transfection, HEK293 cells were suspended in Opti-MEM (without phenol red) supplemented with 2% fetal bovine serum (Seradigm) and 100 units/mL penicillin–streptomycin (Gibco) at a final concentration of 220,000 cells/mL and dispensed into white 96-well plates at 90 μL/well. Subsequent transfections and screens were carried using an Agilent Bravo Automated Liquid Handling Platform. First, the 96-well HiBiT DNA arrays were diluted 25-fold in Opti-MEM (without serum or phenol red) to a final concentration of 0.0004 μg/μL and 20 μL of the diluted DNAs were transferred into new 96-well plates. Next, promoterless carrier DNA (1 μg/μL) was diluted 25-fold (0.04 μg/μL) and then dispensed into the diluted arrays at 20 μL/well. Following brief mixing, Viafect transfection reagent (Promega) diluted 16-fold into Opti-MEM was dispensed into the plates at 40 μL/well. After mixing by pipetting, plates were incubated for 10 min on the pipetting station deck. The DNA-transfection reagent complexes were then added to plates containing cells. To facilitate the screen, 10 μL of DNA-transfection reagent complexes were added in duplicates to the top 4 and bottom 4 rows, resulting in two identical 48-well arrays per plate. Plates with transfected cells were incubated for 18–20 h at 37 °C/5% CO2. A screen of each tracer across the entire library using two different concentrations requires duplicate plates of transfected cells. Depending on the number of tracers being screened, transfections can be scaled up using the same ratios. The next day, for each tracer, four 20× screening solutions in tracer dilution buffer (Promega) were prepared: two duplicates at final concentration of 20 μM and two duplicates at a final concentration of 2 μM. A competing unmodified compound was added to one of each duplicate at a final concentration of 400 μM. The four resulting solutions were diluted 4-fold in Opti-MEM without serum or phenol red to generate 5× solutions (5 µM and 0.5 µM tracer +/− 100 μM competing compound). To screen the library, a BioTek MultiFlo FX liquid dispenser was used to dispense 22.5 µL of tracer solution to the top 4 rows and 22.5 µL tracer + competing compound solution to the 4 bottom rows. Plates were briefly mixed on an orbital shaker and incubated for 1.5 h at room temperature. […]

GRM4 = target: T2, GRM4 (Homo sapiens, UniProt Q14833); test: NanoBRET screen HiBiT-GRM4 in HEK293; conditions: GRM4
T2 construct: purchased Promega (in-house HiBiT-GPCR construct library, NanoBRET)
T2 sequence (Q14833 33-912): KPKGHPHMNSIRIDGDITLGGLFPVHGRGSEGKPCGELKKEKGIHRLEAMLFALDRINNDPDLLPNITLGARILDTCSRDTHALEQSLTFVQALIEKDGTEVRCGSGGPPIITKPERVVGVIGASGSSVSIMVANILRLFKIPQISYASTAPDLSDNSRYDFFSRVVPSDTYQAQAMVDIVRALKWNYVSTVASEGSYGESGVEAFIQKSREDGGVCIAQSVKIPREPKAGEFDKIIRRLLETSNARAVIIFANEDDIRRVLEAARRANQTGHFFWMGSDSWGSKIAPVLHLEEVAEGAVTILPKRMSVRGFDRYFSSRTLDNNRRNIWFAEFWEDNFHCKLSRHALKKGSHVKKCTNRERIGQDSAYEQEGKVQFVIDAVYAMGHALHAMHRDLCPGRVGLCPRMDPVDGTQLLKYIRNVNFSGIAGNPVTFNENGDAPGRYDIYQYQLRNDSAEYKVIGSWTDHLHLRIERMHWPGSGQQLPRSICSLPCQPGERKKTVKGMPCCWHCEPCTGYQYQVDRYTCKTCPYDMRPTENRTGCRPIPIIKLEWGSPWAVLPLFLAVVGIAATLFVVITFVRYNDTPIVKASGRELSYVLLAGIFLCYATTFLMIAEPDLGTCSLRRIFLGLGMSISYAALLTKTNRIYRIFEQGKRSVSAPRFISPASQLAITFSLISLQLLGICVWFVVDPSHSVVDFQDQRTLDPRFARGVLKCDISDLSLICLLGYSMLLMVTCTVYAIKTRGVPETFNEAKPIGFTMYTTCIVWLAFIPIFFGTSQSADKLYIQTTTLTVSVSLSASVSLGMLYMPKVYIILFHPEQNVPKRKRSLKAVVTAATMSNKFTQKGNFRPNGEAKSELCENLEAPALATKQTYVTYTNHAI
Description: as §1, §2

PTGER2 = target: T3, PTGER2 (Homo sapiens, UniProt P43116); test: NanoBRET screen HiBiT-PTGER2 in HEK293; conditions: PTGER2
T3 construct: purchased Promega (in-house HiBiT-GPCR construct library, NanoBRET)
T3 sequence (P43116 whole entry): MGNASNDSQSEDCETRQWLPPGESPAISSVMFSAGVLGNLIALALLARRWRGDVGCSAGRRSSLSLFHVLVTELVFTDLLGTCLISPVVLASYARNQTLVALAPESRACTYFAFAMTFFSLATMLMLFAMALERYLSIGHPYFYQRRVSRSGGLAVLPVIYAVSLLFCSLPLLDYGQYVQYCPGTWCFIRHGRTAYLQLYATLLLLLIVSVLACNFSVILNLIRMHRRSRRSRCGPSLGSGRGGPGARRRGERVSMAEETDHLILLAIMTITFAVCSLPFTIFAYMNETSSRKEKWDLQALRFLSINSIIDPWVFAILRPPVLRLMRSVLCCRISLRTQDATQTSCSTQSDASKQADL
Description: as §1, §2

PTAFR = target: T4, PTAFR (Homo sapiens, UniProt P25105); test: NanoBRET screen HiBiT-PTAFR in HEK293; conditions: PTAFR
T4 construct: purchased Promega (in-house HiBiT-GPCR construct library, NanoBRET)
T4 sequence (P25105 whole entry): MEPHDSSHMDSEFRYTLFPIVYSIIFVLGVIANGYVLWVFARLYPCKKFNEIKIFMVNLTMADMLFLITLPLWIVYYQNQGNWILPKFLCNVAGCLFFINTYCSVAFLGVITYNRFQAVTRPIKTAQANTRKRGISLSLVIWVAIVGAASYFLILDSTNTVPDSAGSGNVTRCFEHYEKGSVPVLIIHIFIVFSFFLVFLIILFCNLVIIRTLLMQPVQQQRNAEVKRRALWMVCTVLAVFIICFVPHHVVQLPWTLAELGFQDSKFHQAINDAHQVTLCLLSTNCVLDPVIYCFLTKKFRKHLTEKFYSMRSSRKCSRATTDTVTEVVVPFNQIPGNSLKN
Description: as §1, §2

FZD2 = target: T5, FZD2 (Homo sapiens, UniProt Q14332); test: NanoBRET screen HiBiT-FZD2 in HEK293; conditions: FZD2
T5 construct: purchased Promega (in-house HiBiT-GPCR construct library, NanoBRET)
T5 sequence (Q14332 24-565): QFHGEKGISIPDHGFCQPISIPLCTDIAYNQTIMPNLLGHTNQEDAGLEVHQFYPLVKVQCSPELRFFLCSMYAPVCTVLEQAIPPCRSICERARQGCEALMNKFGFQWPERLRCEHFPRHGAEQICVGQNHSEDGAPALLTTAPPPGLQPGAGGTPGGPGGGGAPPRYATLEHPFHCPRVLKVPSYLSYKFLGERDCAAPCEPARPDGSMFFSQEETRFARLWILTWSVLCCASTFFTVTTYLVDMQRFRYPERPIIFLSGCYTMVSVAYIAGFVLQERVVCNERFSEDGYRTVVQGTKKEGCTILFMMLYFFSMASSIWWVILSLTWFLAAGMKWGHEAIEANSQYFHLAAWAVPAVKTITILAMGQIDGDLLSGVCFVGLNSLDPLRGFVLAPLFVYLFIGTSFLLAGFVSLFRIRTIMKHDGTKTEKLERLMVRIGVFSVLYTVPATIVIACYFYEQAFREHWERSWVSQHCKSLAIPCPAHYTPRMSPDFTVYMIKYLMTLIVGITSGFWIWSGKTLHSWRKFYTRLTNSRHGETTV
Description: as §1, §2

CCKBR = target: T6, CCKBR (Homo sapiens, UniProt P32239); test: NanoBRET screen HiBiT-CCKBR in HEK293; conditions: CCKBR
T6 construct: purchased Promega (in-house HiBiT-GPCR construct library, NanoBRET)
T6 sequence (P32239 1-447): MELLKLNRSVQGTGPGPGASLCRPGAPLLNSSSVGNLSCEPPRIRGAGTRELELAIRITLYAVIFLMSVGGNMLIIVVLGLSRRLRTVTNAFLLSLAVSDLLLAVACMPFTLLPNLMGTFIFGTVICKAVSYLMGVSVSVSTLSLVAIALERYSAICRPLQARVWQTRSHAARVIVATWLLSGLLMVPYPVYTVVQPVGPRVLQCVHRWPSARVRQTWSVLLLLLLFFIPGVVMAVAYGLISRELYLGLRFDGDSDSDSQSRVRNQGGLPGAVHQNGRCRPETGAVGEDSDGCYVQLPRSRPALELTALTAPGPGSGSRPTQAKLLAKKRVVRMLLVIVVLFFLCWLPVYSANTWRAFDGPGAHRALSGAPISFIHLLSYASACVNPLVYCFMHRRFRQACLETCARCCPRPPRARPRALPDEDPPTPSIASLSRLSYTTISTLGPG
Description: as §1, §2

T1 sequence (P31391 whole entry): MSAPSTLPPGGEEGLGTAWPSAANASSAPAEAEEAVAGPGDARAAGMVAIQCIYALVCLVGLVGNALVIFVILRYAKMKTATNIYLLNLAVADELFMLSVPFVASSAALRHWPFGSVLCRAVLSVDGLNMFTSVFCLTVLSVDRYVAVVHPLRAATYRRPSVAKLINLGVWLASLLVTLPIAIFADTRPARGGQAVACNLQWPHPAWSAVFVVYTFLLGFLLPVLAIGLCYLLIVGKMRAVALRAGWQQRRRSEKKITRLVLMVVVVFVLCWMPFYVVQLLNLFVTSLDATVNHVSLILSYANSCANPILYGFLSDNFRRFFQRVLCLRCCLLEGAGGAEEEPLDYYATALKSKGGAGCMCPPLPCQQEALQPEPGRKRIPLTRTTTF

SMILES | NanoBRET Fold Response (SSTR4; tracer 0.1μM) | NanoBRET Fold Response (SSTR4; tracer 1μM) | NanoBRET Fold Response (GRM4; tracer 0.1μM) | NanoBRET Fold Response (GRM4; tracer 1μM) | NanoBRET Fold Response (PTGER2; tracer 0.1μM) | NanoBRET Fold Response (PTGER2; tracer 1μM) | NanoBRET Fold Response (PTAFR; tracer 0.1μM) | NanoBRET Fold Response (PTAFR; tracer 1μM) | NanoBRET Fold Response (FZD2; tracer 0.1μM) | NanoBRET Fold Response (FZD2; tracer 1μM) | NanoBRET Fold Response (CCKBR; tracer 0.1μM) | NanoBRET Fold Response (CCKBR; tracer 1μM) | further results
Cc1nc2n(c(=O)c1CCN1CCC(c3noc4cc(F)ccc34)CC1)CCCC2OC(=O)NCCOCCOCCOCCOCCNC(=O)CCc1ccc2n1[B-](F)(F)[N+]1=C(c3ccc[nH]3)C=CC1=C2 (stereo not drawn) [Risperidone-2-NB590] | 1.03 | 1.04 | 0.98 | 1.05 | 1.01 | 1.05 | 1.00 | 1.10 | 1.01 | 1.03 | 1.01 | 0.81 | 
CCOC(=O)c1cc(C#N)c(N2CCC(C(=O)NS(=O)(=O)Cc3ccccc3/C=C/C(=O)NCCNC(=O)CCc3ccc4n3[B-](F)(F)[N+]3=C(c5ccc[nH]5)C=CC3=C4)CC2)nc1C [AZD1283-1-NB590] |  |  |  |  |  |  |  |  |  |  |  |  | NanoBRET Fold Response (SSTR4; 0.1μM): 1.10; NanoBRET Fold Response (SSTR4; 1μM): 1.07; NanoBRET Fold Response (GRM4; 0.1μM): 1.06; NanoBRET Fold Response (GRM4; 1μM): 1.07; NanoBRET Fold Response (PTGER2; 0.1μM): 1.00; NanoBRET Fold Response (PTGER2; 1μM): 1.04; NanoBRET Fold Response (PTAFR; 0.1μM): 1.01; NanoBRET Fold Response (PTAFR; 1μM): 1.17; NanoBRET Fold Response (FZD2; 0.1μM): 1.04; NanoBRET Fold Response (FZD2; 1μM): 1.11; NanoBRET Fold Response (CCKBR; 0.1μM): 1.18; NanoBRET Fold Response (CCKBR; 1μM): 1.10
Cc1cc2c(s1)Nc1ccccc1N=C2N1CCN(CCCNC(=O)CCOCCOCCOCCOCCNC(=O)CCc2ccc3n2[B-](F)(F)[N+]2=C(c4ccc[nH]4)C=CC2=C3)CC1 [Olanzapine-a-2-NB590] | 0.98 | 1.04 | 0.99 | 0.93 | 1.03 | 0.98 | 1.00 | 0.99 | 0.98 | 0.90 | 1.07 | 0.89 | 
COc1ccccc1N1CCN(CCCCN2C(=O)c3ccc(CNC(=O)CCOCCNC(=O)c4ccc(CNC(=O)CCc5ccc6n5[B-](F)(F)[N+]5=C(c7ccc[nH]7)C=CC5=C6)cc4)cc3C2=O)CC1 [NAN-190-3-NB590] | 0.90 | 1.05 | 1.14 | 1.33 | 1.06 | 1.00 | 1.05 | 1.30 | 0.88 | 1.44 | 0.98 | 0.94 | 
CC(C)N(CC[C@H](c1ccccc1)c1cc(CCNC(=O)CCOCCOCCOCCOCCNC(=O)CCc2ccc3n2[B-](F)(F)[N+]2=C(c4ccc[nH]4)C=CC2=C3)ccc1O)C(C)C [Tolterodine-2-NB590] | 0.97 | 1.14 | 0.97 | 1.14 | 1.00 | 1.01 | 1.17 | 0.73 | 0.91 | 0.95 | 0.97 | 1.07 | 
